The values below come from US20110105565A1, “WATER SOLUBLE SMALL MOLECULE INHIBITORS OF THE CYSTIC FIBROSIS TRANSMEMBRANE CONDUCTANCE REGULATOR” (THE REGENTS OF THE UNIVERSITY OF CALIFORNIA, priority 2008, published 2011).

In general, IC50 refers to the concentration that inhibits the measured activity by half.

Data set [1] in a line: Solubility measurements in saline (PBS, LC/MS). It counts as physicochemical. To be noted: for Solubility in saline: Table 3, PBS, DMSO <2%; for solubility in saline / aqueous solubility: values in text, LC/MS. On the procedure: Solubility measurements. A saturated compound solution was prepared by addition of DMSO stock to phosphate buffered saline (final DMSO 2%) followed by sonication for 5 min at 25° C. and shaking at room temperature for 1 h. After centrifugation at 15,000 rpm for 1 h, the supernatant was analyzed by LC/MS with concentration determined from area under the curve, standardized against calibration data. A standard curve for each compound was obtained by plotting area under the curve from chromatograms against inhibitor concentration. The concentration range of the standard solutions was 1-15 μM (for 5) and 1-100 μM (other compounds). In all cases, standard curves prepared were linear with r>0.998.
A saturated drug solution of a compound was prepared by addition of the compound in DMSO to phosphate buffered saline (PBS), followed by sonication for 5 min at 25° C. Final concentration of DMSO was <2%. Each saturated solution was centrifuged and filtered. The saturated supernatant solution was diluted and injected into LC/MS. The concentration was determined from area under the curve using a calibration curve.

The test system of data set [2] is MDCK cells. Description: MDCK cell cyst model of polycystic kidney disease. It counts as cell-based, Canine. To be noted: 10 μM. An excerpt: An MDCK cell model of polycystic kidney disease was used to screen CFTR inhibitors of the thiazolidinone and glycine hydrazide classes for reducing cyst formation and expansion. […] Culture of MDCK cells in three-dimensional collagen gels produces a polarized, single-layer, thinned epithelium surrounding a fluid-filled space, apical […] microvilli, a solitary cilium, and apical tight junctions (see, e.g., McAteer et al., Scan Elect Microsc (Pt 3): 1135-1150, 1986; McAteer et al., Scanning Microsc 2: 1739-1763, 1988; and Taide et al., Eur J Clin Invest 26: 506-513, 1996).
Type I MDCK cells (ATCC No. CCL-34) were cultured at 37° C. in a humidified 95% air/5% CO2 atmosphere in a 1:1 mixture of Dulbecco's modified Eagle's medium (DMEM) and Ham's F-12 nutrient medium supplemented with 10% fetal bovine serum (Hyclone), 100 U/mL penicillin and 100 μg/mL streptomycin. To generate cysts, four hundred MDCK cells were suspended in 0.4 ml of ice-cold Minimum Essential Medium containing 2.9 mg/mL collagen (PuRECOL, Inamed Biomaterials, Fremont Calif.), 10 mM HEPES, 27 mM NaHCO3, 100 U/mL penicillin and 100 μg/mL streptomycin (pH 7.4). The cell suspension was plated onto 24-well plates. After gelation, 1.5 mL of MDCK cell medium containing 10 μM forskolin was added to each well and plates were maintained at 37° C. in a 5% CO2 humidified atmosphere.
The compound structures together with their approximate CFTR inhibition potencies (expressed as IC50 values) are provided in FIGS. 3 and 4. Indicated IC50 values for T01-07, T10, T12-14 were reported by Ma et al. (J Clin Invest 110: 1651-1658 (2002)). IC50 values for T08, T11, and T16 were determined by short-circuit analysis performed according to methods described herein. Indicated IC50 values for G01-05, G8-16 were reported by Sonawane et al. (FASEB J. 20: 130-132 (2006); Sonawane et al., Gastroenterology 132:1234-44 (2007)). IC50 values for G06 and G07 were determined by short-circuit current analysis performed according to methods described herein.
Medium containing forskolin and test compounds was changed every 12 h. At day 6, cysts (with diameters >50 μm) and non-cyst cell colonies were counted by phase-contrast light microscopy at 20× magnification (546 nm monochromatic illumination) using a Nikon TE 2000-S inverted microscope. In some experiments, compounds were added to medium in the continued presence of forskolin from day 4 after seeding and the medium containing forskolin and compounds was changed every 12 h for 8 days. Micrographs showing the same cysts in collagen gels (identified by markings on plates) were obtained every 2 days. For determination of cyst growth, cyst diameters were measured using Image J software. At least 10 cysts/well and 3 wells/group were measured for each condition.

Data set [3] has as its target T1, human wildtype CFTR (Homo sapiens, UniProt P13569). The data set is described as follows: Fluorescence cell-based assay of CFTR inhibition (YFP iodide influx, FRT cells). Also noted: expressed in transfected cells; host or cells: Fisher rat thyroid (FRT) cells. As to conditions: for CFTR inhibitory activity (in words): structure-activity discussion.
Experimental: CFTR inhibition by thiazolidinone derivative compounds was determined by a fluorescence cell-based assay utilizing doubly transfected cells expressing human wild-type CFTR and a yellow fluorescent protein (YFP) iodide sensor, as described (see, e.g., Galietta, et al., J. Physiol. 281:C1734-C1742 (2001)). Fisher rat thyroid (FRT) cells stably expressing wild-type human CFTR and YFP-H148Q were cultured on 96-well black-wall plates as described (see, e.g., Ma, et al., J. Clin. Invest. 110:1651-1658 (2002)). Cells in 96-well plates were washed three times, and then CFTR was activated by incubation for 15 minutes with an activating cocktail containing 10 μM forskolin, 20 μM apigenin, and 100 μM IBMX. Test compounds were added 5 minutes before assay of iodide influx in which cells were exposed to a 100 mM inwardly directed iodide gradient. YFP fluorescence was recorded for 2 seconds before and 12 seconds after creation of the iodide gradient. Initial rates of iodide influx were computed from the time course of decreasing fluorescence after the iodide gradient.
CFTR-facilitated iodide influx following extracellular iodide addition results in quenching of cytoplasmic YFP fluorescence.
The target in data set [4] is T1, human wildtype CFTR. The data set is described as follows: Short-circuit current measurements, apical chloride current in FRT cells. It counts as cell-based. Also noted: expressed in transfected cells; host or cells: FRT (Fisher rat thyroid) cells. As to conditions: for inhibition of CFTR in short-circuit current analysis (in words): increasing concentration, forskolin-stimulated.
Experimental: Short-circuit current measurements. FRT cells (stably expressing human wildtype CFTR) were cultured on [sequence] filters with 1 cm^2 surface area (Corning-Costar) to resistance >1,000 Ω·cm^2 as described (see, e.g., Ma et al., J. Clin. Invest. 110:1651-1658 ((2002)); Sonawane et al., FASEB J. 20:130-132 (2006)). Filters were mounted in an Easymount Chamber System (Physiologic Instruments, San Diego). For apical current measurements, the basolateral hemichamber contained (in mM): 130 NaCl, 2.7 KCl, 1.5 KH2PO4, 1 CaCl2, 0.5 MgCl2, 10 Na-HEPES, 10 glucose (pH 7.3). The basolateral membrane was permeabilized with amphotericin B (250 μg/ml) for 30 min. In the apical solution 65 mM NaCl was replaced by sodium gluconate, and CaCl2 was increased to 2 mM. Solutions were bubbled with 95% O2/5% CO2 and maintained at 37° C. Current was recorded using a DVC-1000 voltage-clamp (World Precision Instruments) using Ag/AgCl electrodes and 1 M KCl agar bridges.
CFTR was stimulated by cAMP agonist forskolin and increasing concentration of test compounds was added.

The conditions of data set [5]: cited references; cited from earlier work.
The subject of a further data set is FRT cells. Description: Cytotoxicity measurements, crystal violet staining of FRT cells. It counts as cell-based, rat. As to conditions: 48 h; for % Cell viability 20 μM / % Cell viability 50 μM: crystal violet staining. On the procedure: Cytotoxicity measurements. FRT cells in confluent monolayers were incubated with compounds for 2 days. Cells were washed 3 times, fixed (cytofix, 30 min) and stained with crystal violet (100 μl, 0.5%, 10 min) using standard procedures. Excess crystal violet was removed by washing, and dye was extracted with Sorenson's buffer (0.1 M sodium citrate, 50% ethanol, pH 4.2). Crystal violet was quantified by measurement of absorbance at 650 nm. The percentage crystal violet staining was determined from test wells measured 8 times, compared to blanks (wells not containing cells) and vehicle-treated cells.
Cytotoxicity analysis was performed for Tetrazolo-172, Oxo-172, α-Me-172 and Pyridine-NO-172 (Compound 17) and compared with CFTRinh-172 (Table 3). […] Crystal violet staining was reduced for Tetrazolo-172 and α-Me-172 at 50 μM.

For data set [6], the system named is MDCK cells. The data set is described as follows: MDCK cell cytotoxicity, crystal violet staining. It counts as cell-based, Canine. As to conditions: 20 μM, 72 h. On the procedure:
To test whether inhibition of cyst growth could be related to cytotoxicity, certain compounds were tested for their effects on cell viability, cell proliferation and apoptosis. Crystal violet staining was used to assess compound effects on cytotoxicity (see, e.g., Johnson et al., Clin Cancer Res 11: 6924-6932, 2005). MDCK cells were incubated for 24 h on 96-well plates, and then incubated for 72 h with test compounds at 20 μM. Medium was removed and adherent cells were fixed and stained for 30 min with 0.5% crystal violet in 20% methanol. Plates were washed with distilled water, and the stain was extracted with Sorenson's buffer (0.1 mol/L sodium citrate, pH 4.2, in 50% ethanol) overnight at 4° C., and absorbance measured at 570 nm.

Setting [7] is: Table 1, upper part, CFTR inhibitory activity, given as ranges, read-out: IC50.
Setting [8] is: Table 2 summary table, given as ranges, read-out: IC50.
Where [9] appears, read: Table 3, inhibition potency, read-out: IC50.
Where [10] appears, read: values in text, forskolin-stimulated CFTR, read-out: IC50 (short-circuit current).
Setting [11] is: Table 1, lower parts, given as ranges, read-out: IC50.

Molecules are shown by their SMILES. ≈ marks a conversion by molar mass, not a printed value. Where “and” joins values, the source holds several entries; their conditions need not be identical. Equal entries are not always repeated.

T1 sequence (P13569 whole entry): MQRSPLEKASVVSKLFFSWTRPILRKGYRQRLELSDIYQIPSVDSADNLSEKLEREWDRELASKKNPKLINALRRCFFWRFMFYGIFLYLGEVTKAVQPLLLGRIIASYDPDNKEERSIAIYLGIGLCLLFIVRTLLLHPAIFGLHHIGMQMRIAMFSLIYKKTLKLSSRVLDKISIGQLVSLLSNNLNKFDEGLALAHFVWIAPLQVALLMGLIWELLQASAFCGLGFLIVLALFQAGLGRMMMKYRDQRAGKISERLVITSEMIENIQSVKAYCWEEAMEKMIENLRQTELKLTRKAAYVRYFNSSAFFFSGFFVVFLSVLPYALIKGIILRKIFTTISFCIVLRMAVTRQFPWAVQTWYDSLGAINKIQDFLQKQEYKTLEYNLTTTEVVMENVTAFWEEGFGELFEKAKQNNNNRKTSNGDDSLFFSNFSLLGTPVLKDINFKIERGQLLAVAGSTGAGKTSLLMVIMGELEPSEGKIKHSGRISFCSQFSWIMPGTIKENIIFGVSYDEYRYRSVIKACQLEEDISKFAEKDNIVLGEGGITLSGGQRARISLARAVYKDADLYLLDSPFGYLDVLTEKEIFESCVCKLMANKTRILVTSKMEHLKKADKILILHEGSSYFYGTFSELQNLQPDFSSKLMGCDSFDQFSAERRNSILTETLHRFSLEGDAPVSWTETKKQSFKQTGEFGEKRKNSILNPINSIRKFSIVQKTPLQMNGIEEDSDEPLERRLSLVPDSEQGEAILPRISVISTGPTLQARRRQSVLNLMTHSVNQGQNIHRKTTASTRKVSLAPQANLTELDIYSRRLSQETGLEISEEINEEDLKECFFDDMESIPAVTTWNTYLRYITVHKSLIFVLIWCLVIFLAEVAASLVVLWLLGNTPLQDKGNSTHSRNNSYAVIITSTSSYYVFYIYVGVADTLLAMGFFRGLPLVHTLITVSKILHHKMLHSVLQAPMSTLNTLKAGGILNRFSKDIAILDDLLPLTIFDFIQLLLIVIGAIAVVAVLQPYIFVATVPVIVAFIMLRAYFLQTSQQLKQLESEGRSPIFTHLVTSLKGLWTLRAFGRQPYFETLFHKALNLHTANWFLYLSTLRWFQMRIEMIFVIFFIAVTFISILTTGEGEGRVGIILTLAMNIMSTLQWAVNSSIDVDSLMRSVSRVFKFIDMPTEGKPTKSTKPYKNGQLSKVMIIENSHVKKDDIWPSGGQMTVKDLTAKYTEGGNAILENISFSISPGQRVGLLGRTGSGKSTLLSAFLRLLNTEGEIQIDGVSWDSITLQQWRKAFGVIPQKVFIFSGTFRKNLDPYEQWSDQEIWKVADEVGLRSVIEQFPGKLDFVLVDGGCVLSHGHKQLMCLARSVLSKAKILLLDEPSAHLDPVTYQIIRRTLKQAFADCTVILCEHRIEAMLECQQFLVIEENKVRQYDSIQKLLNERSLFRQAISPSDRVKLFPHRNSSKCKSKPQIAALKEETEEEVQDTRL

Consider `O=C(O)c1ccc(/C=C2\SC(=S)N(c3cccc(C(F)(F)F)c3)C2=O)cc1` [Compound 5, (Z)-4-((4-oxo-2-thioxo-3-(3-(trifluoromethyl)phenyl)thiazolidin-5-ylidene)methyl)benzoic acid, reference compound], for which, in data set [1], the “Solubility in saline” value came to 17 µM (≈ 6.96 µg/mL). In the data set on MDCK cells [2], the “effect on MDCK cyst enlargement/formation (in words)” value is “inhibited cyst formation, but to a lesser extent”. For the same molecule, the IC50 is 0.1 to 1 µM on human wildtype CFTR [3] (setting [7]); 0.1 to 1 µM on human wildtype CFTR [3] (setting [8]); 0.38 ± 0.04 µM on human wildtype CFTR [4] (setting [9]); 0.4 µM and 0.25 to 0.5 µM at human wildtype CFTR [4] (setting [10]). The water solubility result in data set [5] is on record as “less than 17 μM”. Moreover, in the data set with FRT cells, the “% Cell viability 20 μM” value turned out to be 86%.
Take `O=C1/C(=C/c2cc(Br)c(O)c(Br)c2O)SC(=S)N1c1cccc(C(F)(F)F)c1` [Compound 15, (Z)-5-(3,5-dibromo-2,4-dihydroxybenzylidene)-2-thioxo-3-(3-(trifluoromethyl)phenyl) thiazolidin-4-one]: the “MDCK cell viability (in words)” value in the data set on MDCK cells [6] is on record as “reduced MDCK cell viability”. Besides, the IC50 on human wildtype CFTR [3] (setting [7]) and on human wildtype CFTR [3] (setting [8]) was 5 to 10 µM throughout. Further, on human wildtype CFTR [3], the “CFTR inhibitory activity (in words)” value is reported as “modest inhibition activity”.
In the case of `O=C1/C(=C/c2cc[n+]([O-])cc2)SC(=S)N1c1cccc(C(F)(F)F)c1` [Compound 17, (Z)-4-((4-oxo-2-thioxo-3-(3-(trifluoromethyl)phenyl)thiazolidin-5-ylidene)methyl)pyridine 1-oxide], in data set [1], the “solubility in saline / aqueous solubility” value stood at 264 µM (≈ 101 µg/mL). Also, the half-maximal inhibitory concentration (IC50) on human wildtype CFTR [3] (setting [8]) was 5 to 10 µM; at human wildtype CFTR [3] (Tables 1 and 2, read-out: IC50 (CFTR inhibition)), 5 to 10 µM; on human wildtype CFTR [4] (setting [9]), 8.7 ± 0.7 µM; on human wildtype CFTR [4] (setting [10]), 9 µM and 7 to 9 µM. For the same molecule, the “inhibition of CFTR in short-circuit current analysis (in words)” value (“inhibition of CFTR” below) on human wildtype CFTR [4] is on record as “dose dependant inhibition”.
`Cc1c(N2C(=O)/C(=C/c3ccc(C(=O)O)cc3)SC2=S)cccc1C(F)(F)F` [Compound 18, (Z)-4-((3-(2-methyl-3-(trifluoromethyl)phenyl)-4-oxo-2-thioxothiazolidin-5-ylidene)methyl)benzoic acid]: the “solubility in saline / aqueous solubility” value in data set [1] turned out to be 259 µM (≈ 110 µg/mL). The half-inhibitory concentration (IC50) on human wildtype CFTR [3] (setting [7]) is 5 to 10 µM; on human wildtype CFTR [3] (setting [8]), 5 to 10 µM; at human wildtype CFTR [4] (setting [9]) it was 8.2 ± 0.4 µM; on human wildtype CFTR [4] (setting [10]), 8 µM and 8 to 10 µM. Further, the “inhibition of CFTR” value against human wildtype CFTR [4] is listed as “dose dependant inhibition”. Moreover, the “% Cell viability 20 μM” value with FRT cells was found to be 89%. Further, the “Crystal violet staining at 50 μM (in words)” value in the data set with FRT cells (50 μM) was “reduced”. Besides, in the data set with FRT cells (50 μM), the “% Cell viability 50 μM” value turned out to be 72%.
On to `O=C(O)c1ccc(/C=C2\SC(=O)N(c3cccc(C(F)(F)F)c3)C2=O)cc1` [Compound 47, (Z)-4-((2,4-dioxo-3-(3-(trifluoromethyl)phenyl)thiazolidin-5-ylidene)methyl)benzoic acid], for which, in data set [1], the “increase of solubility in saline/water relative to CFTRinh-172” value is recorded as about 25 fold. Besides, in data set [1], the “Solubility in saline” value came to 420 µM (≈ 165 µg/mL). The half-maximal inhibitory concentration (IC50) at human wildtype CFTR [3] (setting [11]) is 1 to 2 µM; on human wildtype CFTR [3] (setting [8]) it was 1 to 2 µM; at human wildtype CFTR [4] (setting [9]) it was 1.4 ± 0.2 µM; at human wildtype CFTR [4] (setting [10]), 1 to 2 µM. At human wildtype CFTR [4], the “inhibition of CFTR” value is given as “dose dependant inhibition”. For the same molecule, at human wildtype CFTR [4] (short-circuit current assays), the “reduction of CFTR inhibition potency relative to CFTRinh-172” value was 3.6 fold. The “% Cell viability 20 μM” value in the data set on FRT cells is 93%. Also, the “% Cell viability 50 μM” value in the data set with FRT cells (50 μM) is listed as 91%.
On to `O=C(O)c1ccc(NC(=S)C2SC(=S)N(c3cccc(C(F)(F)F)c3)C2=O)cc1O` (centres unmarked) [Compound 52, 2-hydroxy-4-(4-oxo-2-thioxo-3-(3-(trifluoromethyl)phenyl)thiazolidine-5-carbothioamido)benzoic acid], for which the “water solubility (in words)” value in data set [1] is recorded as “highly water soluble”. In addition, the 50% inhibitory concentration (IC50) at human wildtype CFTR [3] (setting [11]) and at human wildtype CFTR [3] (setting [8]) was 10 to 20 µM throughout. Also, the “CFTR inhibitory activity (in words)” value at human wildtype CFTR [3] was “inactive”.
